Laboratory results from patent US20210017555A1, “METHOD FOR PRODUCING 4-AMINOCINNAMIC ACID, AND VECTOR AND HOST CELL USED IN SAME” (JAPAN SCIENCE AND TECHNOLOGY AGENCY, priority 2018, published 2021).

How the values were obtained:
[1] = Conversion efficiency by CamPAL at different bacteria mass and substrate mass (resting cells); type: cell-based, Escherichia coli; conditions: cell mass 20 g/L or 30 g/L, substrate mass 21 g/L, 37° C., pH 8.5, 24 hours
Experimental: The CamPAL-producing Escherichia coli strain described in Example 1 was precultured using 5 mL of LB medium containing 40 mg/L kanamycin sulfate at 28° C. for 16 hours with stirring at 300 rpm. 1 mL of this pre-cultured solution was inoculated to 100 mL of TB medium having the following composition after the addition of 80 mg/L kanamycin sulfate, and cultured at 30° C. for 4 hours with shaking at 120 rpm. After the addition of 0.1 mM of IPTG, the cells were further cultured for 20 hours, recovered from the culture solution by centrifugation, and stored at −80° C. The frozen cells thus obtained were weighed at 10 g/L, 20 g/L and 30 g/L, while the substrate 4-nitrophenylalanine was also weighed at 4.2 g/L, 21 g/L, and 42 g/L.
Each mass of the cells and each mass of the substrate were suspended in a reaction buffer (100 mM Tris-HCl buffer, pH 8.5), and a resting microbial cell reaction was carried out at 37° C. with stirring at 300 rpm. After the reaction for 24 hours, the reaction solution was collected, and the amounts of 4-nitrophenylalanine and 4-nitrocinnamic acid were quantified. For the quantification of each reaction product, the supernatant of the obtained (bacterial cell) reaction solution was transferred to a centrifuge tube, collected by centrifugation, and the reaction product was quantified using the HPLC mentioned above.

[2] = Conversion of 4-nitrophenylalanine to 4-aminocinnamic acid in 1 L jar fermenter; type: cell-based, Escherichia coli; conditions: glycerol 10%, pH 8.5, 37° C., 36 hours, air flow 0.02 L/min
Experimental: Conversion of 4-nitrophenylalanine to 4-aminocinnamic acid was carried out using a 1 L jar fermenter (manufactured by Biott: BMJ-01), in the presence of glycerol under the conditions mentioned above. Specifically, 5 mL of the preculture liquid of Example 2 was inoculated to a 1 L jar fermenter containing 0.5 L of TB medium supplemented with 80 mg/L kanamycin sulfate, and cultured at 30° C. for 4 hours, with aeration at 0.7 L/min and stirring at 645 rpm. 0.1 mM IPTG was then added, and the culturing was continued for another 20 hours.
After the completion of the culturing, 7 g/L of 4-nitrophenylalanine and glycerol at a final concentration of 10% were added to the culture solution, and the pH was adjusted to 8.5 with 2N NaOH. The reaction was carried out at 37° C. for 36 hours with an air flow rate of 0.02 L/min and stirring at 645 rpm. When the pH dropped below 8.0, 2N NaOH was added. During the reaction, the reaction solution was sampled, and 4-nitrophenylalanine, 4-nitrocinnamic acid and 4-aminocinnamic acid were quantified.

[3] = Resting-cell reaction of PAL-producing E. coli, 4-nitrophenylalanine to 4-nitrocinnamic acid; type: cell-based, Escherichia coli; conditions: resting cells; for amount of 4-nitrocinnamic acid in the reaction supernatant: 24 hours, 28° C., pH 8.5, 20 mM 4-nitrophenylalanine, versus control Escherichia coli
Experimental: The CamPAL-, LiePAL-, and RgPAL-producing Escherichia coli strains mentioned above were precultured using 3 mL of LB medium containing 40 mg/L kanamycin sulfate at 28° C. for 16 hours with stirring at 300 rpm. 1 mL of this pre-cultured liquid was inoculated to 100 mL of LB medium containing 40 mg/L of kanamycin sulfate, cultured at 30° C. for 4 hours with shaking at 120 rpm, and after the addition of 0.5 mM of IPTG, incubated further for 20 hours. The obtained bacterial cells were washed twice with a reaction buffer (100 mM Tris-HCl buffer, pH 8.5).
The resting cells obtained were suspended in a reaction buffer and reacted at 28° C. with shaking at 300 rpm. 20 mM of 4-nitrophenylalanine was added to the medium every 24 hours while the reaction was continued. The reaction supernatant was periodically collected to quantify 4-nitrophenylalanine and 4-nitrocinnamic acid.
The supernatant was transferred to a centrifuge tube, collected by centrifugation, and the reaction product was quantified using high performance liquid chromatography (HPLC).
The same experiment was also performed using the host Escherichia coli as a control.

[4] = Deammonase activity of purified enzymes by absorptiometry; type: biochemical; conditions: purified recombinant enzyme 2 mg/mL, 50 mM Tris-HCl pH 8.6, 0.3 to 9.6 mM substrate, 380 nm, 10 minutes
Experimental: • Apparatus: BECKMAN COULTER DU800 UV/Vis Spectrophotometer • Amount of enzyme: 2mg/mL • Buffer solution: 50mM Tris-HCl buffer (pH=8.6) • Concentration of substrate: 0.3mM to 9.6mM • Volume: 200μL • Measurement wavelength: From 4-nitrophenylalanine to 380 nm 4-nitrocinnamic acid: From phenylalanine to 305 nm cinnamic acid: • Measurement period: 10 minutes • Measurement temperature: 25° C.
Each of the CamPAL-, LiePAL-, and RgPAL-producing Escherichia coli strains was inoculated to 5 mL of LB medium containing 30 mg/L kanamycin sulfate, and cultured at 28° C. for 16 hours (hereinafter also may be referred to as “preculture”). […]
The enzyme activity was measured and quantified by measuring the absorbance of the reaction product at the absorption wavelength for 10 minutes using an absorptiometer.
Specifically, regarding the deammonase activity for phenylalanine, 2 mg/mL of each of the above enzymes was added to 50 mM Tris-HCl buffer (pH=8.6) containing 0.3 to 9.6 mM phenylalanine to cause reaction, and the change in absorbance at a wavelength of 305 nm resulting from the formation of cinnamic acid was measured for 10 minutes. […]

[5] = Conversion of 4-nitrophenylalanine to 4-nitrocinnamic acid in 2 L jar fermenter; type: cell-based, Escherichia coli; conditions: 24 hours
Experimental: The CamPAL-producing Escherichia coli strain described in Example 1 was used (cell mass: 20 g/L to 30 g/L) was used in a reaction of converting the substrate 4-nitrophenylalanine (group weight 21 g/L) to 4-nitrocinnamic acid, using a 2 L jar fermenter (BNR-C-2LS manufactured by Maruhishi Bio Engineering Co., Ltd.) as a reactor.
Specifically, the CamPAL-producing Escherichia coli strain was precultured using 15 mL of LB medium with […] kanamycin sulfate at 28° C. for 16 hours with stirring at 300 rpm. 12 mL of this preculture liquid was inoculated to a 2 L jar fermenter containing 1.2 L TB medium with 80 mg/L kanamycin sulfate, and cultured at 30° C. for 4 hours with aeration of 3.5 L/min and stirring at 500 rpm. […] The mass of bacterial cells calculated from the value of OD600 was 30 g/L.
After completion of the culture, 21 g/L of 4-nitrophenylalanine was added to the culture medium as the substrate, and the pH was adjusted to 8.5 using a 2N NaOH aqueous solution. […] The reaction solution was collected during the reaction, and 4-nitrophenylalanine and 4-nitrocinnamic acid were quantified as follows: the reaction solution was transferred to a centrifuge tube, the supernatant was recovered by centrifugation, and the reaction product was quantified using HPLC under the above conditions.

[6] = Search for carbon source for conversion of 4-nitrocinnamic acid to 4-aminocinnamic acid; type: cell-based, Escherichia coli; conditions: glycerol added at 10% (compared with glucose, fructose), 2 g/L 4-nitrocinnamic acid, pH 8, 37° C., 24 hours
Experimental: The CamPAL-producing Escherichia coli strain described in Example 1 was first precultured for 16 hours in the same manner as in Example 2. 1 mL of this pre-cultured liquid was inoculated to 100 mL of TB medium containing 80 mg/L kanamycin sulfate, cultured at 30° C. for 4 hours with stirring at 120 rpm, and after the addition of 0.1 mM IPTG, cultured further for 16 hours. 2 g/L of 4-nitrocinnamic acid was added to the resultant culture solution, the pH was adjusted to 8 using 2N NaOH, and glucose, fructose, or glycerol was added as a carbon source at a final concentration of 10%. The cells were cultured at 37° C. for 24 hours with stirring at 300 rpm to cause reaction.
During the reaction, the reaction solution was collected, and 4-aminocinnamic acid was quantified. Specifically, the reaction solution was transferred to a centrifuge tube, the supernatant was recovered by centrifugation, and the reaction product was quantified using the HPLC.

Row | Substance | conversion efficiency of 4-nitrophenylalanine to 4-nitrocinnamic acid (yield) [1] [%] | 4-aminocinnamic acid produced from 7 g/L of 4-nitrophenylalanine [2] [g/L] | conversion of 4-nitrophenylalanine to 4-nitrocinnamic acid over time ([3]; 20 mM 4-nitrophenylalanine added every 24 hours) | amount of 4-nitrocinnamic acid in the reaction supernatant [3] | capacity to convert 4-nitrophenylalanine to 4-nitrocinnamic acid [4] | 4-nitrocinnamic acid converted from 21 g/L of 4-nitrophenylalanine ([5]; 2 L jar fermenter, cell mass 30 g/L, pH 8.5, 37° C., without aeration) [g/L] | 4-nitrocinnamic acid converted from 21 g/L of 4-nitrophenylalanine ([5]; same reaction, aeration rate 0.04 L/min) [g/L] | amount of 4-aminocinnamic acid obtained [6]
1 | CamPAL: phenylalanine ammonia-lyase derived from Camellia sinensis, SEQ ID NO: 1, expressed in E. coli BL21(DE3) | ≥ 60 | 4.7 | proceeded continuously | significantly higher than that of the control Escherichia coli | have a capacity to covert 4-nitrophenylalanine to 4-nitrocinnamic acid | 18 | 12 | largest amount of 4-aminocinnamic acid was obtained when glycerol was added
2 | LiePAL: phenylalanine ammonia-lyase derived from Lithospermum erythrorhizon, SEQ ID NO:3, expressed in E. coli | – | – | – | significantly higher than that of the control Escherichia coli | have a capacity to covert 4-nitrophenylalanine to 4-nitrocinnamic acid | – | – | –
